These results are taken from patent US20100029654A1, “CARDIOVASCULAR COMPOSITIONS AND USE OF THE SAME FOR THE TREATMENT OF ALZHEIMER'S DISEASE” (MOUNT SINAI SCHOOL OF MEDICINE, priority 2006, published 2010).

In series [1] the test system is Aβ1-42. Description: Aβ1-42 content in conditioned medium of primary cortico-hippocampal neuron cultures from Tg2576 mice (ELISA; primary and secondary dose-response screening). The class given is cell-based, mouse. The settings on record: for Ab1-42 (% of ctl): drug 100 μM. In a few lines:
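Primary cortico-hippocampal neurons from embryonic Tg2576 mouse brain were seeded on poly-D-lysine-coated 96-well plates at 1.0×10^5 cells per well in serum-free Neurobasal medium with 2% B27, 0.5 mM L-glutamine and 1% penicillin-streptomycin. For primary screening, duplicate wells received 100 μM drug (1% DMSO final). Vehicle-treated cultures served as controls, and Aβ1-42 in conditioned medium was measured by commercial ELISA.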
On the technique in general: ELISA stands for enzyme-linked immunosorbent assay.

Series [2] concerns primary cortico-hippocampal neuron cultures. The experiment in a line: lactate dehydrogenase (LDH) activity assay in parallel neuron cultures.
Experimental: For in vitro treatments drugs available from “The Spectrum Collection” in stocks of 10 mM in DMSO were applied directly to cultures to the desired concentrations (final 1% DMSO); control primary neuron cultures from Tg2576 embryos were treated with vehicle resulting in a final 1% DMSO.
Cell viability was assessed using a commercial available LDH assay kit according to the manufacture's instruction (Promega).
Series [3] deals with Aβ1-40. Description: Aβ1-40 content in conditioned medium of primary cortico-hippocampal neuron cultures from Tg2576 mice (ELISA; primary and secondary dose-response screening). Particulars: for Ab1-40 (% of ctl): drug 100 μM. The class given is cell-based, mouse. In a few lines: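 Primary cortico-hippocampal neurons from embryonic Tg2576 mice were plated at 1.0×10^5 cells per well on poly-D-lysine-coated 96-well plates in Neurobasal with 2% B27, 0.5 mM L-glutamine and 1% penicillin-streptomycin. Cultures received drug in 1% DMSO, and Aβ1-40 in the conditioned medium was measured by BioSource ELISA 24 hours after treatment, relative to vehicle controls.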

[4] abbreviates: Primary Screening, table sorted by Aβ1-40.
Where [5] appears, read: primary screening, Tg2576 neuron cultures, table sorted by Aβ1-42.

Like-named read-outs stand apart in the source and are kept apart here.

As usually defined, the EC50 is the concentration that produces a half-maximal response.

In the case of “N-(1-oxopentyl)-N-[[2-(1H-tetrazol-5-yl) [1,1-biphenyl]-4-yl]methyl]-L-valine [Valsartan]”, the “Ab1-42 (% of ctl)” value in series [1] (setting [4]) and in series [1] (setting [5]) was 42.0 % of ctl throughout. Further, the “reducing Aβ1-42” value in series [1] (primary screening, <85% of ctl) is recorded as “useful in reducing Aβ1-42”. The “LDH (% of ctl)” value in series [2] (setting [4]) is on record as 94.1 % of ctl; in series [2] (primary screening, table sorted by Aβ1-42), 94.1 % of ctl. Moreover, the “LDH (at 5F-5 M)” value in series [2] (Table IV) is given as “no change”. Besides, in series [2] (drug at E-5M), the “LDH at E-5M % of change” value was 13.0%. Besides, the “Ab1-40 (% of ctl)” value in series [3] (setting [4]) and in series [3] (setting [5]) was 51.6 % of ctl in each case. The EC50 in series [3] (Table IV, dose-response 0.01-100 μM, read-out: EC50 (M): Ab-lowering activity Abeta1-40) came out at 1.44e-05 M; in series [3] (conditioned medium of primary cortico-hippocampal neuron cultures from Tg2576 embryos, 24 hours after treatment, relative to vehicle (1% DMSO) control, read-out: EC50 (molar) Aβ1-40) it was 1.44e-05 M; in series [3] (secondary dose-response screening 0.01-100 μM, 24 hours, read-out: EC50 (molar) Aβ1-40) it was 1.44e-05 M. The “reduced Aβ1-40” value in series [3] (primary screening, <85% of ctl) is “reduced Aβ1-40”.
